Assay results reported in PubChem BioAssay (NCI).
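The compound was tested at five concentrations on cells cultured in 96-well plates, with a 48-hour exposure period. At the GI50, growth is halved. At the TGI there is no net growth.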

Key:
Test in all cases: NCI anticancer screen, dose series, 48 h
SF-539 CNS = system: SF-539 CNS
SF-295 CNS = system: SF-295 CNS
HCC-2998 colon = system: HCC-2998 colon
SF-268 CNS = system: SF-268 CNS
U251 CNS = system: U251 CNS
SN12C renal = system: SN12C renal
SK-OV-3 ovarian = system: SK-OV-3 ovarian
HL-60(TB) leukemia = system: HL-60(TB) leukemia
A498 renal = system: A498 renal
UACC-257 melanoma = system: UACC-257 melanoma
NCI-H23 lung = system: NCI-H23 lung
NCI-H460 lung = system: NCI-H460 lung
SK-MEL-2 melanoma = system: SK-MEL-2 melanoma
UACC-62 melanoma = system: UACC-62 melanoma
A549 NSCLC = system: A549 NSCLC
HOP-62 NSCLC = system: HOP-62 NSCLC
IGROV1 ovarian = system: IGROV1 ovarian
CAKI-1 renal = system: CAKI-1 renal
K-562 leukemia = system: K-562 leukemia
TK-10 renal = system: TK-10 renal
MDA-MB-231 breast = system: MDA-MB-231 breast
SNB-75 CNS = system: SNB-75 CNS
CCRF-CEM leukemia = system: CCRF-CEM leukemia
BT-549 breast = system: BT-549 breast
NCI-H226 lung = system: NCI-H226 lung
EKVX NSCLC = system: EKVX NSCLC
SR leukemia = system: SR leukemia
OVCAR-5 ovarian = system: OVCAR-5 ovarian

`C=C1CC[C@@H]2[C@]3(C)COC(c4cn(-c5ccccc5)nc4-c4ccccc4)O[C@@H]3CC[C@@]2(C)[C@@H]1C/C=C1/C(=O)OC[C@H]1O` (stereo not given in full) gave a TGI (SF-539 CNS) of 3.26 µM, a GI50 (SF-295 CNS) of 1640 nM and a TGI (SF-295 CNS) of 3.05 µM. For the same compound, the GI50 (HCC-2998 colon) was 1680 nM, the TGI (HCC-2998 colon) was 3.11 µM and the GI50 (SF-268 CNS) was 3.2 µM. The TGI (SF-268 CNS) was 20.5 µM, the GI50 (U251 CNS) was 1840 nM and the TGI (U251 CNS) was 3.71 µM. The GI50 (SN12C renal) was 1870 nM, the TGI (SN12C renal) was 3.96 µM and the GI50 (SK-OV-3 ovarian) was 4.75 µM. It also gave a TGI (SK-OV-3 ovarian) of 18.7 µM, a GI50 (HL-60(TB) leukemia) of 2320 nM and a TGI (HL-60(TB) leukemia) of 7.46 µM. For the same compound, the GI50 (A498 renal) was 2340 nM, the TGI (A498 renal) was 6.47 µM and the GI50 (UACC-257 melanoma) was 1900 nM. The TGI (UACC-257 melanoma) was 3.8 µM, the GI50 (NCI-H23 lung) was 1690 nM and the TGI (NCI-H23 lung) was 3.08 µM. It also gave a GI50 (NCI-H460 lung) of 1660 nM, a TGI (NCI-H460 lung) of 3.35 µM and a GI50 (SK-MEL-2 melanoma) of 1740 nM. The TGI (SK-MEL-2 melanoma) was 3.54 µM, the GI50 (UACC-62 melanoma) was 1650 nM and the TGI (UACC-62 melanoma) was 3.2 µM. It also gave a GI50 (A549 NSCLC) of 2490 nM, a TGI (A549 NSCLC) of 7.11 µM and a GI50 (HOP-62 NSCLC) of 1870 nM. It also gave a TGI (HOP-62 NSCLC) of 3.84 µM, a GI50 (IGROV1 ovarian) of 1770 nM and a TGI (IGROV1 ovarian) of 3.44 µM. For the same compound, the GI50 (CAKI-1 renal) was 1860 nM, the TGI (CAKI-1 renal) was 4.81 µM and the GI50 (K-562 leukemia) was 2970 nM. The TGI (K-562 leukemia) was > 100 µM, the GI50 (TK-10 renal) was 1780 nM and the TGI (TK-10 renal) was 3.39 µM. For the same compound, the GI50 (MDA-MB-231 breast) was 1720 nM, the TGI (MDA-MB-231 breast) was 3.25 µM and the GI50 (SNB-75 CNS) was 1360 nM. The TGI (SNB-75 CNS) was 3.9 µM, the GI50 (CCRF-CEM leukemia) was 590 nM and the TGI (CCRF-CEM leukemia) was 3.37 µM. It also gave a GI50 (BT-549 breast) of 1640 nM, a TGI (BT-549 breast) of 3.16 µM and a GI50 (NCI-H226 lung) of 1950 nM. For the same compound, the TGI (NCI-H226 lung) was 4.31 µM, the GI50 (EKVX NSCLC) was 2070 nM and the TGI (EKVX NSCLC) was 4.65 µM. For the same compound, the GI50 (SR leukemia) was 3.79 µM, the TGI (SR leukemia) was > 100 µM and the GI50 (OVCAR-5 ovarian) was 1860 nM. It also gave a TGI (OVCAR-5 ovarian) of 4.02 µM.
